What was measured:
Format in all cases: in vivo
[1] = tested on: Italian ryegrass (Lolium multiflorum); assay: Test B pre-/postemergence plant response; settings: for Plant response rating, Ryegrass, Italian: Postemergence
Summary of the method: (§1)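 Response scores were assigned visually after 13 to 15 days in a greenhouse, comparing treated pots with controls on a 0–100 scale where 100 denotes complete control. Preemergence treatments went onto freshly seeded loam/sand soil; postemergence treatments onto plants 2 to 18 cm tall.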

[2] = tested on: bermudagrass (Cynodon dactylon); assay: Test B pre-/postemergence plant response; settings: for Plant response rating, Bermudagrass: Postemergence
Summary of the method: as §1

[3] = tested on: blackgrass (Alopecurus myosuroides); assay: Test B pre-/postemergence plant response; settings: for Plant response rating, Blackgrass: Postemergence
Summary of the method: as §1

corn (Zea mays) = assay: Test B pre-/postemergence plant response; settings: for Plant response rating, Corn: Postemergence
Summary of the method: as §1

[4] = tested on: downy bromegrass (Bromus tectorum); assay: Test B pre-/postemergence plant response; settings: for Plant response rating, Bromegrass, Downy: Postemergence
Summary of the method: as §1

[5] = tested on: giant foxtail (Setaria faberii); assay: Test B pre-/postemergence plant response; settings: for Plant response rating, Foxtail, Giant: Postemergence
Summary of the method: as §1

[6] = tested on: goosegrass (Eleusine indica); assay: Test B pre-/postemergence plant response; settings: for Plant response rating, Goosegrass: Postemergence
Summary of the method: as §1

[7] = tested on: green foxtail (Setaria viridis); assay: Test B pre-/postemergence plant response; settings: for Plant response rating, Foxtail, Green: Postemergence
Summary of the method: as §1

[8] = tested on: johnsongrass (Sorghum halepense); assay: Test B pre-/postemergence plant response; settings: for Plant response rating, Johnsongrass: Postemergence
Summary of the method: as §1

[9] = tested on: morningglory (Ipomoea coccinea); assay: Test B pre-/postemergence plant response; settings: for Plant response rating, Morningglory: Postemergence
Summary of the method: as §1

[10] = tested on: pigweed (Amaranthus retroflexus); assay: Test B pre-/postemergence plant response; settings: for Plant response rating, Pigweed: Postemergence
Summary of the method: as §1

[11] = tested on: ragweed (common ragweed, Ambrosia elatior); assay: Test B pre-/postemergence plant response; settings: for Plant response rating, Ragweed: Postemergence
Summary of the method: as §1

soybean (Glycine max) = assay: Test B pre-/postemergence plant response; settings: for Plant response rating, Soybean: Postemergence
Summary of the method: as §1

[12] = tested on: velvetleaf (Abutilon theophrasti); assay: Test B pre-/postemergence plant response; settings: for Plant response rating, Velvetleaf: Postemergence
Summary of the method: as §1

[13] = tested on: wheat (Triticum aestivum); assay: Test B pre-/postemergence plant response; settings: for Plant response rating, Wheat: Postemergence
Summary of the method: as §1

[14] = tested on: canarygrass (Phalaris minor); assay: Test B postemergence plant response; settings: for Plant response rating, Canarygrass: Postemergence
Summary of the method: (§2)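 Plants grown in peat/vermiculite medium were sprayed postemergence at 2–18 cm height (1- to 4-leaf stage). After 13–15 days in the greenhouse, response was rated visually against untreated controls on a 0–100 scale (0 no effect, 100 complete control).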

[15] = tested on: chickweed (Stellaria media); assay: Test B postemergence plant response; settings: for Plant response rating, Chickweed: Postemergence
Summary of the method: as §2

[16] = tested on: winter barley (Hordeum vulgare); assay: Test B postemergence plant response; settings: for Plant response rating, Barley: Postemergence
Summary of the method: as §2

[17] = 62 g ai/ha, postemergence, 0 is no effect, 100 is complete control, 13 to 15 days
[18] = 31 g ai/ha, 0 to 100 scale (0 no effect, 100 complete control)
[19] = 125 g ai/ha, scale 0 to 100 (0 no effect, 100 complete control)
[20] = 250 g ai/ha, scale 0 to 100 (0 no effect, 100 complete control)

COCCCn1c(-c2cccc(F)c2)ncc(C(=O)C2=C(O)CCCC2=O)c1=O [Compound 126]
85: Bermudagrass plant response rating (0 to 100 scale) [2, 17] | Plant response rating, Foxtail, Giant [5, 19] | Plant response rating, Goosegrass [6, 20] | Plant response rating, Johnsongrass [8, 19] | Morningglory plant response rating (0 to 100 scale) [9, 17] | Plant response rating, Ragweed [11, 19] | Plant response rating, Soybean (soybean (Glycine max); [19])
50: Plant response rating, Ryegrass, Italian [1, 20] | Plant response rating, Foxtail, Green [7, 18]
75: Plant response rating, Bermudagrass [2, 18] | Plant response rating, Goosegrass [6, 19] | Plant response rating, Morningglory [9, 18] | Plant response rating, Pigweed [10, 18] | Ragweed plant response rating (0 to 100 scale) [11, 17] | Soybean plant response rating (0 to 100 scale) (soybean (Glycine max); [17])
25: Blackgrass plant response rating (0 to 100 scale) [3, 17]
90: Plant response rating, Bermudagrass [2, 19] | Plant response rating, Foxtail, Giant [5, 20] | Plant response rating, Foxtail, Green [7, 19] | Plant response rating, Johnsongrass [8, 20] | Plant response rating, Ragweed [11, 20] | Velvetleaf plant response rating (0 to 100 scale) [12, 17] | Plant response rating, Canarygrass [14, 20]
0: Plant response rating, Ryegrass, Italian [1, 18]
60: Plant response rating, Canarygrass [14, 19]
30: Plant response rating, Blackgrass [3, 19] | Corn plant response rating (0 to 100 scale) (corn (Zea mays); [17]) | Plant response rating, Bromegrass, Downy [4, 19]
5: Ryegrass, Italian plant response rating (0 to 100 scale) [1, 17] | Plant response rating, Ryegrass, Italian [1, 19] | Plant response rating, Blackgrass [3, 18] | Plant response rating, Bromegrass, Downy [4, 18] | Plant response rating, Wheat [13, 18] | Barley plant response rating (0 to 100 scale) [16, 17] | Plant response rating, Barley [16, 18]
10: Plant response rating, Corn (corn (Zea mays); [18])
95: Plant response rating, Bermudagrass [2, 20] | Plant response rating, Foxtail, Green [7, 20] | Pigweed plant response rating (0 to 100 scale) [10, 17] | Plant response rating, Velvetleaf [12, 19]
35: Plant response rating, Wheat [13, 19]
80: Plant response rating, Corn (corn (Zea mays); [20]) | Foxtail, Giant plant response rating (0 to 100 scale) [5, 17] | Foxtail, Green plant response rating (0 to 100 scale) [7, 17] | Plant response rating, Velvetleaf [12, 18] | Chickweed plant response rating (0 to 100 scale) [15, 17]
45: Plant response rating, Blackgrass [3, 20]
98: Plant response rating, Pigweed [10, 19] | Plant response rating, Pigweed [10, 20] | Plant response rating, Soybean (soybean (Glycine max); [20]) | Plant response rating, Velvetleaf [12, 20] | Plant response rating, Chickweed [15, 19] | Plant response rating, Chickweed [15, 20]
65: Plant response rating, Goosegrass [6, 18] | Johnsongrass plant response rating (0 to 100 scale) [8, 17] | Plant response rating, Johnsongrass [8, 18] | Plant response rating, Chickweed [15, 18]
15: Bromegrass, Downy plant response rating (0 to 100 scale) [4, 17] | Wheat plant response rating (0 to 100 scale) [13, 17] | Plant response rating, Canarygrass [14, 18] | Plant response rating, Barley [16, 19]
70: Plant response rating, Foxtail, Giant [5, 18] | Goosegrass plant response rating (0 to 100 scale) [6, 17] | Plant response rating, Soybean (soybean (Glycine max); [18])
40: Plant response rating, Bromegrass, Downy [4, 20] | Canarygrass plant response rating (0 to 100 scale) [14, 17] | Plant response rating, Barley [16, 20]
55: Plant response rating, Corn (corn (Zea mays); [19]) | Plant response rating, Ragweed [11, 18]
100: Plant response rating, Morningglory [9, 19] | Plant response rating, Morningglory [9, 20]
